Source: US20170304288A1, “Formulations of Methionine Aminopeptidase Inhibitors for Treating Infectious Diseases” (Texas Southern University, priority 2013, published 2017)
Values after ≈ are worked out from the molar mass of the structure shown. Read-outs that look alike come from different tables or passages of the source.

Key:
E. faecalis V583 [1] = experiment: Assay of E. faecalis inhibition (MIC) in BHI culture
plasma protein = experiment: Plasma protein binding in rat plasma
[2] = Solubility in various solvents, shaker method; assay type: physicochemical; settings: for solubility at 72 h: thermodynamic from solid, read-out: Mean Solubility ± SD
Method: Assessment of the solubility of compound 5 in various solvents is important in developing suitable formulations for preclinical and clinical studies. The solubility of compound 5 in water, ethanol, poly ethylene glycol 400, propylene glycol monocapryrate type I (PGMC), propylene glycol monocapryrate type II (CAPYROL 90), dimethyl sulfoxide (DMSO), dimethyl acetamide (DMA), TWEEN 80, TWEEN 20, paraffin oil, soybean oil, and olive oil were determined by the shaker method. Briefly, excess amount of compound 5 was added to each of the selected solvents in a scintillation vial and placed on a reciprocating shaker to shake at room temperature for 72 h. The samples were centrifuged at 14,000 rpm for 10 min and subsequently filtered through a 0.22 μm filtration unit; the resulting filtrate was analyzed by HPLC-UV to determine the amount of compound 5 dissolved in the solvents. The experiment was conducted in triplicate.

E. faecalis OG1RF [3] = experiment: Bacterial viability (CFU) in infected nematodes after treatment; assay type: in vivo, Enterococcus faecalis; settings: 4×10^−11 μg/mL, after three days of treatment
Method: Young Adult nematodes sequentially preinfected with E. faecalis for 5 h. The nematodes were washed three times with sterile […] and collected by centrifugation between each wash and then transferred into tubes. […] The nematodes were washed twice in 25 mM Tetramisole and transferred to 6 well plates containing 20% BHI and the inhibitors to recover for 48 h and 72 h. After recovery time elapsed, nematodes were then transferred into an eppendorf tube containing 200 μl of M9 and ground using motorized pestle for 1 min and tube was briefly vortexed.

[4] = Octanol-water partition co-efficient, shaker method; assay type: physicochemical; settings: read-out: experimental M log P
Method: The octanol—water partition co-efficient (log P) of compound 5, which measures its hydrophilicity (“water-loving” property) or hydrophobicity (“water-repelling” property), was evaluated using the shaker method. […] This indicate potential water solubility challenges especially for oral administration.

E. faecalis OG1RF [5] = experiment: Assay of E. faecalis inhibition (MIC) in BHI culture; settings: Enterococcus faecalis, read-out: Minimum Inhibitory Concentration MIC30 OG1RF
[6] = test system: Pseudomonas aeruginosa (PA14); experiment: Screening against P. aeruginosa in LB and SK media
[7] = Stability of co-solvent formulations at storage temperatures; assay type: physicochemical; settings: stored at −20° C., 4° C. and 25° C.; Day 3, 7, 14 and 30
Method: The stability of the optimal co-solvent formulations was investigated at various storage temperatures. Briefly, aliquots of the optimal co-solvent formulations were stored at different temperatures (−20° C., 4° C. and 25° C.) and analyzed using LC/MS/MS on Day 3, 7, 14 and 30 to determine the amount of compound 5 remaining. The experiment was conducted in triplicates. […] The optimal co-solvent formulations were applied to the pharmacokinetic study of compound 5 in rats (Table 18).

E. faecalis V583 [8] = experiment: Liquid-based C. elegans infection model, survival

In the case of `Oc1c(Br)cc(Cl)c2cccnc12` [Compound 5, 7-bromo-5-chloroquinolin-8-ol], the “Minimum Inhibitory Concentration MIC30 V583” value (E. faecalis V583 [1]) is reported as 0.25 to 0.50 µg/mL, the MIC (E. faecalis V583 [1]; Enterococcus faecalis, V583, read-out: Minimum Inhibitory Concentration MIC30 V583) is reported as 0.25 to 0.5 µg/mL (≈ 0.967 to 1.93 µM) and the “Bound fraction (%) ± SD” value (plasma protein; Concentration 5 μg/mL) is reported as 91.0 ± 0.6%. The “Bound fraction (%) ± SD” value (plasma protein; Concentration 25 μg/mL) was 96.3 ± 1.4%, the “Bound fraction (%) ± SD” value (plasma protein; Concentration 50 μg/mL) was 98.3 ± 0.3% and the “Mean Solubility ± SD” value ([2]; Dimethyl acetamide) was over 80 mg/mL. The solubility at 72 h ([2]; dimethyl acetamide, organic solvent or mixture) was over 80 mg/mL, the solubility at 72 h ([2]; water) was 0.07 mg/mL (≈ 271 µM) and the “drop in CFU” value (E. faecalis OG1RF [3]) was 50 fold. For the same molecule, the logP [4] was 3.03 ± 0.04, the MIC (E. faecalis OG1RF [5]) was 2.5 to 5 µg/mL (≈ 9.67 to 19.3 µM) and the MIC ([6]; PA14, read-out: MIC30 P. aeruginosa) was under 2.5 µg/mL. The inhibition at 2.5 µg/mL ([6]; PA14, read-out: inhibition of P. aeruginosa) was about 80%, the “stability in the optimal co-solvent formulations” value [7] was “stable in the co-solvent formulations for up to one month” and the “MPC (Minimum Protective Concentration) V583” value (E. faecalis V583 [8]) was 4e-12 µg/mL.
